Laboratory results published in patent US20230227466A1, “SUBSTITUTED THIENOPYRIMIDINES THAT INTERACT WITH THE RAS SUPERFAMILY FOR THE TREATMENT OF CANCERS, INFLAMMATORY DISEASES, RASOPATHIES, AND FIBROTIC DISEASE” (SHY Therapeutics, LLC, priority 2020, published 2023).
Where two headings read alike, the source gives them in different places.

Key:
KRas wild type = KRas wild type (Homo sapiens, UniProt P01116); test: Ras GTP binding domain inhibition assay (labeled-GTP competition, cell-free); design: made in house
Procedure, shortened: (§1)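 First, the His-tagged protein was captured overnight at 4° C on nickel wells. Second, compound was applied at 20 μM or as a dilution series for IC50 over 3 h. Third, 100 nM Cy3- or Cy5-GTP was added for 45 min. Finally, wells were washed and bound label quantified.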

Rac-1 = Rac-1 (Homo sapiens, UniProt P63000); test: as above; design: made in house
Procedure, shortened: as §1

Rho-A = Rho-A (Homo sapiens, UniProt P61586); test: as above; design: made in house
Procedure, shortened: as §1

[1] = tested on: ERK1/2 phosphorylation in Panc-1 cells; test: Western ERK1/2 cell-based phosphorylation assay; design: species or system human; settings: at 10 μM, values in brackets < > are activation %, not inhibition
Procedure, shortened: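 Panc-1 cells starved overnight in 0.5% FBS, then exposed 6 h at 37 °C to compound at 10 μM final (0.3% DMSO) or serial dilutions for IC50. Stimulation with 1.5 ng/ml EGF for 15 min; phospho-ERK1/2 (Thr202/Tyr204) read by western blot on equal protein loads.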

KRas G12C mutant = target: T1, KRas G12C mutant (Homo sapiens, UniProt P01116, G12C); test: Ras GTP binding domain inhibition assay (labeled-GTP competition, cell-free)
T1 construct: made in house
Procedure, shortened: as §1

KRas G12D mutant = target: T2, KRas G12D mutant (Homo sapiens, UniProt P01116, G12D); test: as above
T2 construct: made in house
Procedure, shortened: as §1

KRas Q61H mutant = target: T3, KRas Q61H mutant (Homo sapiens, UniProt P01116, Q61H); test: as above
T3 construct: made in house
Procedure, shortened: as §1

[2] = with SOS, read-out: KRas wild type + SOS: % inh.
[3] = without SOS, read-out: KRas wild type: % inh.
[4] = with SOS, read-out: Rac-1 + SOS: % inh.
[5] = without SOS, read-out: Rac-1: % inh.
[6] = with SOS, read-out: Rho-A + SOS: % inh.
[7] = without SOS, read-out: Rho-A: % inh.
[8] = with SOS, read-out: KRas G12C mutant + SOS: % inh.
[9] = without SOS, read-out: KRas G12C mutant: % inh.
[10] = with SOS, read-out: KRas G12D mutant + SOS: % inh.
[11] = without SOS, read-out: KRas G12D mutant: % inh.
[12] = with SOS, read-out: KRas Q61H mutant + SOS: % inh.
[13] = without SOS, read-out: KRas Q61H mutant: % inh.

inhibition at 20 µM (KRas wild type; [2]) [%]	inhibition at 20 µM (KRas wild type; [3]) [%]	inhibition at 20 µM (Rac-1; [4]) [%]	inhibition at 20 µM (Rac-1; [5]) [%]	inhibition at 20 µM (Rho-A; [6]) [%]	inhibition at 20 µM (Rho-A; [7]) [%]	inhibition at 20 µM (KRas G12C mutant; [8]) [%]	inhibition at 20 µM (KRas G12C mutant; [9]) [%]	inhibition at 20 µM (KRas G12D mutant; [10]) [%]	inhibition at 20 µM (KRas G12D mutant; [11]) [%]	inhibition at 20 µM (KRas Q61H mutant; [12]) [%]	inhibition at 20 µM (KRas Q61H mutant; [13]) [%]	IC50 (KRas Q61H mutant; with SOS) [µM]	Compound	% inh of ERK1/2 phosphorylation in PANC-1 [1]
76 to 100	51 to 75	76 to 100	76 to 100	76 to 100	51 to 75	76 to 100	76 to 100	76 to 100	76 to 100	76 to 100	76 to 100	5 to 10	CO[C@H]1CC[C@@H](Nc2nc(-c3nccn3C)nc3sc(-c4cn(C)cn4)c(-c4ccccc4)c23)C1 (racemic) [Example 3, Rac-N-((1R,3S)-3-methoxycyclopentyl)-2-(1-methyl-1H-imidazol-2-yl)-6-(1-methyl-1H-imidazol-4-yl)-5-phenylthieno[2,3-d]pyrimidin-4-amine]	A (1-25% inhibition)
1 to 25	51 to 75	–	51 to 75	–	51 to 75	1 to 25	26 to 50	26 to 50	51 to 75	26 to 50	51 to 75	–	COc1ccn2c(-c3nc(O)c4scc(-c5ccccn5)c4n3)ncc2c1 [Compound 85, 2-(7-Methoxyimidazo[1,5-a]pyridin-3-yl)-7-(pyridin-2-yl)thieno[3,2-d]pyrimidin-4-ol]	0 (0% inhibition)
26 to 50	51 to 75	–	51 to 75	–	51 to 75	26 to 50	26 to 50	51 to 75	51 to 75	51 to 75	26 to 50	–	COc1ccc2cnc(-c3nc(O)c4scc(-c5ccccn5)c4n3)n2c1 [Compound 86, 2-(6-Methoxyimidazo[1,5-a]pyridin-3-yl)-7-(pyridin-2-yl)thieno[3,2-d]pyrimidin-4-ol]	0 (0% inhibition)
1 to 25	26 to 50	–	51 to 75	–	51 to 75	1 to 25	1 to 25	26 to 50	51 to 75	26 to 50	1 to 25	–	COCCn1c(-c2nc(O)c3scc(-c4ccccn4)c3n2)nc2ccccc21 [Compound 87, 2-(1-(2-Methoxyethyl)-1H-benzo[d]imidazol-2-yl)-7-(pyridin-2-yl)thieno[3,2-d]pyrimidin-4-ol]	A (1-25% inhibition)
1 to 25	26 to 50	–	51 to 75	–	51 to 75	26 to 50	1 to 25	26 to 50	51 to 75	26 to 50	26 to 50	–	Oc1nc(-c2ccncn2)nc2c(-c3ccccn3)csc12 [Compound 88, 7-(Pyridin-2-yl)-2-(pyrimidin-4-yl)thieno[3,2-d]pyrimidin-4-ol]	<B>
0	0	–	0	–	1 to 25	0	0	0	0	1 to 25	1 to 25	–	Oc1nc(-c2cccnc2)nc2c(-c3ccccn3)csc12 [Compound 89, 7-(Pyridin-2-yl)-2-(pyridin-3-yl)thieno[3,2-d]pyrimidin-4-ol]	A (1-25% inhibition)
0	0	–	26 to 50	–	51 to 75	1 to 25	1 to 25	1 to 25	26 to 50	26 to 50	1 to 25	–	Cn1ccc(-c2nc(O)c3scc(-c4ccccn4)c3n2)n1 [Compound 90, 2-(1-Methyl-1H-pyrazol-3-yl)-7-(pyridin-2-yl)thieno[3,2-d]pyrimidin-4-ol]	0 (0% inhibition)
0	0	–	0	–	0	1 to 25	0	1 to 25	1 to 25	26 to 50	1 to 25	–	Cn1nccc1-c1nc(O)c2scc(-c3ccccn3)c2n1 [Compound 91, 2-(1-Methyl-1H-pyrazol-5-yl)-7-(pyridin-2-yl)thieno[3,2-d]pyrimidin-4-ol]	0 (0% inhibition)
51 to 75	51 to 75	–	76 to 100	–	76 to 100	51 to 75	51 to 75	51 to 75	76 to 100	51 to 75	76 to 100	–	Cc1cnc(-c2nc(O)c3scc(-c4ccccn4)c3n2)s1 [Compound 92, 2-(5-Methylthiazol-2-yl)-7-(pyridin-2-yl)thieno[3,2-d]pyrimidin-4-ol]	0 (0% inhibition)
51 to 75	51 to 75	–	76 to 100	–	76 to 100	51 to 75	51 to 75	76 to 100	76 to 100	51 to 75	51 to 75	–	COCCn1ccnc1-c1nc(O)c2scc(-c3ccncc3)c2n1 [Compound 94, 2-(1-(2-Methoxyethyl)-1H-imidazol-2-yl)-7-(pyridin-4-yl)thieno[3,2-d]pyrimidin-4-ol]	0 (0% inhibition)
76 to 100	76 to 100	76 to 100	76 to 100	76 to 100	76 to 100	76 to 100	76 to 100	76 to 100	76 to 100	76 to 100	76 to 100	–	COc1nc(-c2nccn2C)nc2c(-c3ncccc3F)csc12 [Compound 95, 7-(3-Fluoropyridin-2-yl)-4-methoxy-2-(1-methyl-1H-imidazol-2-yl)thieno[3,2-d]pyrimidine]	0 (0% inhibition)
76 to 100	76 to 100	51 to 75	51 to 75	76 to 100	76 to 100	76 to 100	76 to 100	51 to 75	51 to 75	76 to 100	51 to 75	1 to 4.99	CO[C@H]1C[C@@H](Nc2nc(-c3nccn3C)nc3sc(-c4cn(C)cn4)c(-c4ccccc4)c23)C1 [Example 2, N-((1s,3s)-3-methoxycyclobutyl)-2-(1-methyl-1H-imidazol-2-yl)-6-(1-methyl-1H-imidazol-4-yl)-5-phenylthieno[2,3-d]pyrimidin-4-amine]	C (51-75% inhibition)
